In PubChem BioAssay AID248 (DTP/NCI, 2004):
“And” between values parts separate entries of the source, which are not always exact repeats. Equal values may be shown once. Inconclusive results and toxic doses are left out. No stated cut-off is given here; in the data, active means T/C of 150% or more; inactive means T/C below 125%.

System: L1210 leukemia ip in BDF1 mice, survival T/C
Assay: NCI In Vivo Anticancer Drug Screen. Data for tumor model L1210 Leukemia (intraperitoneal) in B6D2F1 (BDF1) mice
Conditions: endpoint: mean survival time, higher = longer survival
Method in brief: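 Transplanted-tumor mice were given test agent; controls received vehicle only. Survival readings from the two groups were divided (treated over control).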

[1] = dose: 25.0 mg/kg/injection, schedule: Q04DX002 (ip), vehicle: saline with Tween-80
[2] = dose: 50.0 mg/kg/injection, schedule: Q04DX002 (ip), vehicle: saline with Tween-80
[3] = dose: 100.0 mg/kg/injection, schedule: Q04DX002 (ip), vehicle: saline with Tween-80
[4] = dose: 100.0 mg/kg/injection, schedule: Q04DX002 (ip), vehicle: Klucel (hydroxypropylcellulose) (HPC)
[5] = dose: 200.0 mg/kg/injection, schedule: Q04DX002 (ip), vehicle: Klucel (hydroxypropylcellulose) (HPC)
[6] = dose: 400.0 mg/kg/injection, schedule: Q04DX002 (ip), vehicle: Klucel (hydroxypropylcellulose) (HPC)
[7] = dose: 100.0 mg/kg/injection, schedule: Q04DX003 (ip), vehicle: Klucel (hydroxypropylcellulose) (HPC)
[8] = dose: 200.0 mg/kg/injection, schedule: Q04DX003 (ip), vehicle: Klucel (hydroxypropylcellulose) (HPC)
[9] = dose: 400.0 mg/kg/injection, schedule: Q04DX003 (ip), vehicle: Klucel (hydroxypropylcellulose) (HPC)
[10] = dose: 100.0 mg/kg/injection, schedule: Q01DX009 (ip), vehicle: Klucel (hydroxypropylcellulose) (HPC)
[11] = dose: 200.0 mg/kg/injection, schedule: Q01DX009 (ip), vehicle: Klucel (hydroxypropylcellulose) (HPC)
[12] = dose: 400.0 mg/kg/injection, schedule: Q01DX009 (ip), vehicle: Klucel (hydroxypropylcellulose) (HPC)
[13] = dose: 100.0 mg/kg/injection, schedule: Q01DX009 (ip), vehicle: saline with Tween-80
[14] = dose: 200.0 mg/kg/injection, schedule: Q01DX009 (ip), vehicle: saline with Tween-80
[15] = dose: 400.0 mg/kg/injection, schedule: Q01DX009 (ip), vehicle: saline with Tween-80
[16] = dose: 100.0 mg/kg/injection, schedule: Q04DX003 (ip), vehicle: saline

Measured: T/C

CCOC(=O)C1=C(C#N)C(C(=O)OCC)c2ncccc21 (centres undefined)
inactive: dose: 50.0 mg/kg/injection, schedule: Q01DX005 (ip), vehicle: saline 97 % of control | dose: 100.0 mg/kg/injection, schedule: Q01DX005 (ip), vehicle: saline 88 % of control | dose: 200.0 mg/kg/injection, schedule: Q01DX005 (ip), vehicle: saline 87 % of control | dose: 400.0 mg/kg/injection, schedule: Q01DX005 (ip), vehicle: saline 95 % of control

CN(C)CCC(N)c1cccc2ccccc12 (centres undefined)
inactive: [1] 91 % of control | [2] 116 % of control | [3] 98 % of control

COc1ccc(NC(=O)CC#N)cc1
inactive: dose: 100.0 mg/kg/injection, schedule: Q01DX001 (ip), vehicle: Klucel (hydroxypropylcellulose) (HPC) 101 % of control | dose: 200.0 mg/kg/injection, schedule: Q01DX001 (ip), vehicle: Klucel (hydroxypropylcellulose) (HPC) 95 % of control

CC#N.CC#N.[Cl][Pt][Cl]
inactive: dose: 6.25 mg/kg/injection, schedule: Q04DX003 (ip), vehicle: water 119 % of control | dose: 12.5 mg/kg/injection, schedule: Q04DX003 (ip), vehicle: water 117 % of control | dose: 25.0 mg/kg/injection, schedule: Q04DX003 (ip), vehicle: water 122 % of control | dose: 50.0 mg/kg/injection, schedule: Q04DX003 (ip), vehicle: water 118 % of control

CC1CC(C(=O)O)Cc2c1nc1ccccc1c2C(=O)O (centres undefined)
inactive: [3] 100 % of control | dose: 200.0 mg/kg/injection, schedule: Q04DX002 (ip), vehicle: saline with Tween-80 93 % of control | dose: 400.0 mg/kg/injection, schedule: Q04DX002 (ip), vehicle: saline with Tween-80 96 % of control

COc1nc(Cl)nc(Cl)c1Cl (tested in a mixture with another compound)
inactive: dose: 50.0 mg/kg/injection, schedule: Q01DX009 (ip), vehicle: other 87 % of control | dose: 100.0 mg/kg/injection, schedule: Q01DX009 (ip), vehicle: other 102 % of control

O=[N+]([O-])c1ccc(OCCOCCOc2ccc(S(=O)(=O)F)cc2)c(Cl)c1
inactive: dose: 100.0 mg/kg/injection, schedule: Q01DX001 (ip), vehicle: saline with Tween-80 89 % of control | dose: 200.0 mg/kg/injection, schedule: Q01DX001 (ip), vehicle: saline with Tween-80 97 % of control | dose: 400.0 mg/kg/injection, schedule: Q01DX001 (ip), vehicle: saline with Tween-80 103 % of control

O=c1ssc(Nc2ccccc2)c1Cl
inactive: [4] 93 % of control | [5] 100 % of control | [6] 104 % of control

CCCCOP(=O)(OCCCC)N(C)c1ccccc1
inactive: [1] 89 % of control | [2] 95 % of control | [3] 92 % of control and 93 % of control

CC(=O)OCC(C)(COC(C)=O)[N+](=O)[O-]
inactive: [7] 95 % of control | [8] 92 % of control | [9] 97 % of control

Nc1ccc(N(S(=O)(=O)c2ccccc2)S(=O)(=O)c2ccccc2)nc1
inactive: [10] 95 % of control | [7] 98 % of control | [11] 100 % of control | [8] 97 % of control | [12] 106 % of control | [9] 103 % of control

CC12CCC(O1)C1C[N+](C)(CCC#N)CC12 (centres undefined)
inactive: dose: 55.0 mg/kg/injection, schedule: Q01DX Z (ip), vehicle: saline 105 % of control | dose: 83.0 mg/kg/injection, schedule: Q01DX Z (ip), vehicle: saline 100 % of control | dose: 125.0 mg/kg/injection, schedule: Q01DX Z (ip), vehicle: saline 105 % of control

CCCSCCCC(=O)O
inactive: [10] 88 % of control | [11] 97 % of control

CCOC(=O)C(C)(Cc1c(C)cc(C)c(CC(C)(C(=O)OCC)C(=O)OCC)c1C)C(=O)OCC
inactive: dose: 25.0 mg/kg/injection, schedule: Q01DX009 (ip), vehicle: Klucel (hydroxypropylcellulose) (HPC) 95 % of control | dose: 25.0 mg/kg/injection, schedule: Q04DX003 (ip), vehicle: Klucel (hydroxypropylcellulose) (HPC) 98 % of control | dose: 50.0 mg/kg/injection, schedule: Q01DX009 (ip), vehicle: Klucel (hydroxypropylcellulose) (HPC) 91 % of control | dose: 50.0 mg/kg/injection, schedule: Q04DX003 (ip), vehicle: Klucel (hydroxypropylcellulose) (HPC) 96 % of control | [10] 96 % of control | [7] 100 % of control

O=C(Nc1nccs1)Nc1ccccc1C(F)(F)F
inactive: [13] 100 % of control | [14] 106 % of control | [15] 92 % of control

COC(OC)c1[nH]c(=S)[nH]c(=O)c1CCc1ccccc1
inactive: [4] 97 % of control | [5] 97 % of control | [6] 86 % of control

O=S(=O)(c1ccccc1)C1CC(Cl)C1 (centres undefined)
inactive: [16] 109 % of control | dose: 200.0 mg/kg/injection, schedule: Q04DX003 (ip), vehicle: saline 98 % of control | dose: 400.0 mg/kg/injection, schedule: Q04DX003 (ip), vehicle: saline 97 % of control

CCCCCCCCCCCCCCCCCC[n+]1ccc(C(N)=O)cc1
inactive: [16] 91 % of control

COc1ccc(/C=C(\C#N)c2cccc3ccccc23)cc1
inactive: [7] 98 % of control | [8] 105 % of control | [9] 90 % of control

Cc1cc(C)c(NC(=O)Nc2ccc(Cl)c(Cl)c2)cc1C
inactive: [4] 93 % of control | [5] 96 % of control | [6] 93 % of control

O=[N+]([O-])c1cc[n+]([O-])c(Br)c1
inactive: [13] 98 % of control | dose: 100.0 mg/kg/injection, schedule: Q04DX003 (ip), vehicle: saline with Tween-80 108 % of control | [14] 103 % of control | dose: 200.0 mg/kg/injection, schedule: Q04DX003 (ip), vehicle: saline with Tween-80 101 % of control | [15] 97 % of control | dose: 400.0 mg/kg/injection, schedule: Q04DX003 (ip), vehicle: saline with Tween-80 93 % of control

CCOc1ccc(N=Nc2c(O)n(-c3ccccc3OC)c(=S)n(-c3ccccc3OC)c2=O)cc1
inactive: dose: 75.0 mg/kg/injection, schedule: Q01DX003 (ip), vehicle: Klucel (hydroxypropylcellulose) (HPC) 96 % of control | dose: 100.0 mg/kg/injection, schedule: Q01DX003 (ip), vehicle: Klucel (hydroxypropylcellulose) (HPC) 96 % of control | dose: 200.0 mg/kg/injection, schedule: Q01DX003 (ip), vehicle: Klucel (hydroxypropylcellulose) (HPC) 91 % of control

COc1ccc(C2C(=O)c3ccc(OC)c(OC)c3C2=O)cc1OC (centres undefined)
inactive: dose: 100.0 mg/kg/injection, schedule: Q01DX001 (ip), vehicle: saline 94 % of control | dose: 200.0 mg/kg/injection, schedule: Q01DX001 (ip), vehicle: saline 89 % of control

CC1CCC(C)C([N+](C)(C)C)C1 (centres undefined)
inactive: dose: 12.5 mg/kg/injection, schedule: Q04DX003 (ip), vehicle: saline 98 % of control | dose: 25.0 mg/kg/injection, schedule: Q04DX003 (ip), vehicle: saline 98 % of control | dose: 50.0 mg/kg/injection, schedule: Q04DX003 (ip), vehicle: saline 95 % of control | dose: 75.0 mg/kg/injection, schedule: Q04DX003 (ip), vehicle: saline 93 % of control

NC1(C(=O)O)CCCC2CCCCC21 (centres undefined)
inactive: [10] 100 % of control | [4] 93 % of control | [11] 96 % of control | [5] 93 % of control | [12] 91 % of control | [6] 96 % of control

CSc1ncnc2c1ncn2C1CCCO1 (centres undefined)
inactive: dose: 37.5 mg/kg/injection, schedule: Q01DX Z (ip), vehicle: methylcellulose (MC) 101 % of control | dose: 75.0 mg/kg/injection, schedule: Q01DX Z (ip), vehicle: methylcellulose (MC) 111 % of control

COC(=O)C1CCCN(C)C1c1c[nH]c2ccccc12 (centres undefined)
inactive: dose: 75.0 mg/kg/injection, schedule: Q01DX001 (ip), vehicle: other 90 % of control | dose: 150.0 mg/kg/injection, schedule: Q01DX001 (ip), vehicle: other 106 % of control

Nc1ccc2c(c1)C(=O)CCCC2
inactive: dose: 100.0 mg/kg/injection, schedule: Q01DX001 (ip), vehicle: carboxymethylcellulose (CMC) 102 % of control | dose: 200.0 mg/kg/injection, schedule: Q01DX001 (ip), vehicle: carboxymethylcellulose (CMC) 104 % of control | dose: 400.0 mg/kg/injection, schedule: Q01DX001 (ip), vehicle: carboxymethylcellulose (CMC) 98 % of control

Cc1ccc(CNc2ccc(I)cc2)cc1
inactive: [13] 96 % of control | [14] 96 % of control | [15] 98 % of control
